The experiment can be described thus: Inhibitory concentration against topoisomerase I obtained from calf thymus.

A word on the IC50: it is the concentration needed to halve the response being measured. A low value points to greater potency in that assay.

`CC[C@]1(O)C(=O)OCc2c1cc1n(c2=O)Cc2c-1nc1ccc(F)cc1c2C(=O)O` [(R)-4-Ethyl-9-fluoro-4-hydroxy-3,13-dioxo-3,4,12,13-tetrahydro-1H-2-oxa-6,12a-diaza-dibenzo[b,h]fluorene-11-carboxylic acid] showed an IC50 of 3.1 µM.

The molecule `CC[C@@]1(O)C(=O)OCc2c1cc1n(c2=O)Cc2c-1nc1ccc(F)cc1c2C(=O)O` [(S)-4-Ethyl-9-fluoro-4-hydroxy-3,13-dioxo-3,4,12,13-tetrahydro-1H-2-oxa-6,12a-diaza-dibenzo[b,h]fluorene-11-carboxylic acid] registered an IC50 of over 100 µM. The result for `CCOC(=O)c1c2c(nc3cc4c(cc13)OCCO4)-c1cc3c(c(=O)n1C2)COC(=O)C3(O)CC` (stereo not drawn) [ethyl 8-ethyl-8-hydroxy-9,12-dioxo-2,3,8,9,12,14-hexahydro-11H-[1,4]dioxino[2,3-g]pyrano[3',4':6,7]indolizino[1,2-b]quinoline-15-carboxylate] reads 0.7 µM.
